Test system: ZIKV in human astrocytes
Assay: ZIKV infection of human astrocytes (ZIKVE immunostaining, NS1 Western blot/ELISA)
Format: cell-based, Zika virus
Conditions: PRVABC59
Experimental: FIGS. 4A-1, 4A-2, 4B-1, 4B-2, 4B-3, 4C-1, 4C-2, 4D-1, and 4D-2. […] Cells were fixed 24 hours post infection and stained for ZIKVE (green) and DAPI (blue). Scale bar: 50 μm. Also shown is the quantification of ZIKV-infected astrocytes with multiple compound concentrations (FIG. 4A-2). Values represent mean±s.d. (n=6; ***P<0.001; One-way ANOVA). Shown in FIG. 4B-3 is virus production from compound-treated iPSC-derived human astrocytes (as in FIG. 2F) (n=3 cultures). Data represent mean±s.d. […] Shown are sample images and quantification (FIGS. 4B-1 and 4B-2). Values represent mean±s.d. (n=2; ***P<0.01; One-way ANOVA). Synergistic effect of Emricasan/PHA-690509 combination on improving cell viability in ZIKV infected astrocytes. Note that Emricasan and PHA-690509 inhibit the increased caspase-3 activity in a concentration-dependent manner in human astrocytes infected with FSS13025-ZIKV or MR766 ZIKV, and improve cell viability as measured by ATP production (FIGS. 4C-1, 4C-2, 4D-1, and 4D-2). Values represent mean±s.d. […]
FIGS. 8A-8E. […] Cell lysates were harvested 24 hours post infection and analyzed for ZIKV-NS1 and GAPDH protein levels by western blot. Shown are representative Western blot images (FIG. 8A) and quantification (FIG. 8B). […] Shown in FIG. 8D are representative images of immunostaining for ZIKVE (green) and DAPI (gray, left; Scale bar: 20 μm) and quantification (FIG. 8E). […]

Row | SMILES | inhibition of ZIKV infection in astrocytes
1 | CC(=O)Nc1ccc([C@H](C)C(=O)Nc2ncc(C(C)C)s2)cc1 [PHA-690509] | inhibited ZIKV^PR infection
2 | O=C(Nc1ccc([N+](=O)[O-])cc1Cl)c1cc(Cl)ccc1O [Niclosamide] | inhibited ZIKV^PR infection
